Results: patent US6084072A, “Purified lectin and methods of use” (The Regents of the University of Michigan, priority 1993, dated 2000)
Values joined by “and” are separate entries in the source; they are usually repeats but may differ in a detail not shown here. Identical values can stand only once.

Tested on: colonic adenocarcinoma
Format: binding, human
Parameters: key to Labeling of transitional mucosa: 4^+: Maximum labeling of the brown reaction product; 0: No staining of the slide compared to control sections; 1^+: trace or weak staining definitely not seen on control slides; 2+3^+: stronger staining, but definitely less than maximal

## amaranthin
Cancer specimens
  Effect of Newcastle disease virus neuraminidase on labeling: Neither sialidase enhanced labeling
  Effect of V. Cholerae neuraminidase on labeling: Neither sialidase enhanced labeling
Malignant glands, mean ± SEM, listed as ACA
  Percent of Epithelial Units Labeled: 97±2% and 97%±2%
Mucosa adjacent to colonic cancer, upper and lower crypt region
  Labeling of transitional mucosa: 1^+
